Test system: electrically-induced seizures
Experiment: Maximal electroshock seizure (MES) threshold test
Format: in vivo
Conditions: 10 mg/kg p.o., mice
Procedure: The maximal electroshock seizure (MES) threshold test in rodents is particularly sensitive for detecting potential anticonvulsant properties^1. In this model, anticonvulsant agents elevate the threshold to electrically—induced seizures whilst proconvulsants lower the seizure threshold.
Mice (male, Charles River, U.K. CD-1 strain, 25-30 g) are randomly assigned to groups of 10-20 and dosed orally or intraperitoneally at a dose volume of 10 ml/kg with various doses of compound (0.3-300 mg/kg) or vehicle. Mice are then subjected at 30 or 60 min post dose to a single electroshock (0.1 sec, 50 Hz, sine wave form) administered via corneal electrodes. The mean current and standard error required to induce a tonic seizure in 50% (CC50) of the mice in a particular treatment group is determined by the ‘up and down’ method of Dixon and Mood (1948)^2. Stastical comparisons between vehicle—and drug—treated groups are made using the method of Litchfield and Wilcoxon (1949)^3.
In control animals the CC50 is usually 14-18 mA. […] If a tonic convulsion does occur, then the current is decreased, and so on until all the animals in the group have been tested.
The percentage increase or decrease in CC50 for each group compared to the control is calculated. […]

| SMILES | enhanced seizure threshold (percentage increase in CC50 compared to control) [%] |
| --- | --- |
| CCc1ccc2c(c1)[C@H](NC(=O)c1ccc(F)cc1)[C@H](O)C(C)(C)O2 (relative stereo) [Example 7, cis-6-Ethyl-4S-(4-fluorobenzoylamino)-3,4-dihydro-2,2-dimethyl-2H-1-benzopyran-3S-ol] | 105 |
| CC(=O)c1ccc2c(c1)[C@H](NC(=O)c1ccc(F)cc1)[C@H](O)C(C)(C)O2 (relative stereo) [Example 3, cis-6-Acetyl-4S-(4-fluorobenzoylamino)-3,4-dihydro-2,2-dimethyl-2H-1-benzopyran-3S-ol] | 84 |

From patent US20070088064A1, “PHARMACEUTICAL COMPOSITION CONTAINING BICYCLIC TYPE COMPOUNDS” (SmithKline Beecham plc, priority 1992, published 2007)
